Two compounds from ChEMBL document CHEMBL1132130, “Synthesis of heterocyclic enol ethers and their use as group 2 metabotropic glutamate receptor antagonists” (Bioorg Med Chem Lett, 1999) can be followed below.

SMILES strings stand for the structures. Activity calls are given as the source filed them. The rule behind the calls is not given here. Where only a bound is given, the exact number is not on record here.

The target in assay [1] is T1, Metabotropic glutamate receptor 2 (Rattus norvegicus, UniProt P31421). The experiment in a line: Inhibition of 1S, 3R-ACPD (10 uM)-stimulated GTP gamma 35S binding on rat mGluR2 transfected cell membranes from CHO cells. A general note: Binding of GTPγS marks nucleotide exchange on a G protein.
T1 sequence (P31421 whole entry): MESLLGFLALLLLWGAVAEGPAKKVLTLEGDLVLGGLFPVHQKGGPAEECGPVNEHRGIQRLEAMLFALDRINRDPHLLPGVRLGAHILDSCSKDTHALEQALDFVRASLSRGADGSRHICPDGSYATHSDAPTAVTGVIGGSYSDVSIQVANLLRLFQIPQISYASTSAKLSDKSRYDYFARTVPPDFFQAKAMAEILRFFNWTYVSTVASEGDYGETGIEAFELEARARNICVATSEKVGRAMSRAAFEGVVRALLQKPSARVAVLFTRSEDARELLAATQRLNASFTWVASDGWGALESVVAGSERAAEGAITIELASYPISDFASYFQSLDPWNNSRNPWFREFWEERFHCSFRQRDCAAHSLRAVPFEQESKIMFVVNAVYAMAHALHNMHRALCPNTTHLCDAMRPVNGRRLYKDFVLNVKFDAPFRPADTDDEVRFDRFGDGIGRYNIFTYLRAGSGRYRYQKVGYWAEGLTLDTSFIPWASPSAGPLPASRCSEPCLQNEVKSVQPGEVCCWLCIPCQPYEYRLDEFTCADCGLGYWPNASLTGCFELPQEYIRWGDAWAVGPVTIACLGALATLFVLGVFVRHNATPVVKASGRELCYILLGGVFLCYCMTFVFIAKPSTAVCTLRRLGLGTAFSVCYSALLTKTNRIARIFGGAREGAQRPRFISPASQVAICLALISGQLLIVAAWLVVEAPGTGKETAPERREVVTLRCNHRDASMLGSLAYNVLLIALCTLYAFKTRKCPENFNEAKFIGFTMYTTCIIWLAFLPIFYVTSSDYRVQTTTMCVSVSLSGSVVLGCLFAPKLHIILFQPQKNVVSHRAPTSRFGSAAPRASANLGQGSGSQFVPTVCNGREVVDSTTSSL
Assay [2] has as its target Metabotropic glutamate receptor 4 (Rattus norvegicus) (UniProt P31423). The experiment in a line: Compound was tested for agonistic or antagonistic activity on rat mGluR4 using the GTP-gamma 35S binding model up to 100 uM; IA means devoid of activity.
Assay [3] addresses Metabotropic glutamate receptor 1 (Rattus norvegicus) (UniProt P23385). Put plainly: Compound was tested for agonistic or antagonistic activity on rat mGluR1 using intracellular Ca 2+ measurement up to 100 uM; IA means devoid of activity. The format is functional, cell-based.
The target of assay [4] is T1, Metabotropic glutamate receptor 2. Put plainly: Inhibition of [3H]-DCG IV binding on rat mGluR2 transfected cell membranes from CHO cells.
Assay [5] concerns the target Glutamate receptor ionotropic, NMDA 2C (Rattus norvegicus) (UniProt Q00961). The experiment in a line: Compound was tested for inhibition of binding of [3H]-MK 801 to NMDA receptor in rat brain membranes up to 100 uM; IA means inactive. It is filed as cell membranes.
In assay [6] the target is Glutamate receptor ionotropic, AMPA (Rattus norvegicus) (UniProt P19491+P19492+P19493+P19490). Put plainly: Compound was tested for inhibition of binding of [3H]-Ro- 48-8587 to Ionotropic glutamate receptor AMPA in rat brain membranes up to 100 uM; IA means inactive. It is filed as cell membranes.
In assay [7] the target is Metabotropic glutamate receptor 5 (Rattus norvegicus) (UniProt P31424). Put plainly: Compound was tested for agonistic or antagonistic activity on rat mGluR5 using intracellular Ca 2+ measurement up to 100 uM; IA means devoid of activity. The format is functional, cell-based.
Chain of Metabotropic glutamate receptor 5 (Rattus norvegicus) (P31424 21-1203 limits assumed): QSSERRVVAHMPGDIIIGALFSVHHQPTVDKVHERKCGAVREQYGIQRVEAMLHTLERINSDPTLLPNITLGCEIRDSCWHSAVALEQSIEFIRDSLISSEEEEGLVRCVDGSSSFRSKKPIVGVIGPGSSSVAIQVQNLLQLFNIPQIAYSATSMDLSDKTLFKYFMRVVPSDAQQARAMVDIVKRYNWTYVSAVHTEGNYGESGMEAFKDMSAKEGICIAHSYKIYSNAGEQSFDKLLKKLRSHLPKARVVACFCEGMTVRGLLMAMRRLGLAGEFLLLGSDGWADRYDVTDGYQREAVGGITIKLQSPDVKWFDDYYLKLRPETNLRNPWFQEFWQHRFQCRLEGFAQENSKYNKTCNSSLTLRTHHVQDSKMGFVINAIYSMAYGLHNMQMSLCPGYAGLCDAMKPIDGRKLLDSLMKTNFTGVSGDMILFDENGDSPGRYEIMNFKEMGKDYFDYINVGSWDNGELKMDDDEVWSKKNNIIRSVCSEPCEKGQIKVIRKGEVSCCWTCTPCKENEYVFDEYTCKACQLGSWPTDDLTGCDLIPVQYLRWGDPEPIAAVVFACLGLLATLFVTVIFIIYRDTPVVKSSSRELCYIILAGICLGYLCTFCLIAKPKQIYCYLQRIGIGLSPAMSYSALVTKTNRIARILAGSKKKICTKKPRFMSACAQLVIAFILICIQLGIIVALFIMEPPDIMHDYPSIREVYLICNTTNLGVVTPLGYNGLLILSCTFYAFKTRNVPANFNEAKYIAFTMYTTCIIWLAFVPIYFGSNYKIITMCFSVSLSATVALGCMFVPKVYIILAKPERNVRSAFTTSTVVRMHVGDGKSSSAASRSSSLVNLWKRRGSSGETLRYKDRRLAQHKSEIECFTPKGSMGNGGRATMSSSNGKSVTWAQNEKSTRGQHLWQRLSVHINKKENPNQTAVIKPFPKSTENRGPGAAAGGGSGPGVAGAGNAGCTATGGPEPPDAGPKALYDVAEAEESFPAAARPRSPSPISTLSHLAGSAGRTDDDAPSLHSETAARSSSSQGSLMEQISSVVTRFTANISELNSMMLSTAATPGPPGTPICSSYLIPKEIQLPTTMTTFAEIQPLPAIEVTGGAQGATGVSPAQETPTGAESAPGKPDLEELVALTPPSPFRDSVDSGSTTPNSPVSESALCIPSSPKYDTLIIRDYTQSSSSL
In assay [8] the target is Glutamate receptor ionotropic, kainate (Rattus norvegicus) (UniProt P22756+Q01812+P42260+P42264+Q63273). The experiment in a line: Compound was tested for inhibition of binding of [3H]kainate to Ionotropic glutamate receptor kainate in rat brain membranes up to 100 uM; IA means inactive. The format is cell membranes.
Assay [9] has as its target T1, Metabotropic glutamate receptor 2. Put plainly: Inhibition of 10 uM 1S, 3R-ACPD stimulated GTP gamma 35S binding to rat mGluR2 expressed in CHO cells. It is filed as cell-based.

In general, IC50 refers to the concentration that gives 50% inhibition. Read a low IC50 as greater potency.

Chain of Metabotropic glutamate receptor 1 (Rattus norvegicus) (P23385 19-1199 limits assumed): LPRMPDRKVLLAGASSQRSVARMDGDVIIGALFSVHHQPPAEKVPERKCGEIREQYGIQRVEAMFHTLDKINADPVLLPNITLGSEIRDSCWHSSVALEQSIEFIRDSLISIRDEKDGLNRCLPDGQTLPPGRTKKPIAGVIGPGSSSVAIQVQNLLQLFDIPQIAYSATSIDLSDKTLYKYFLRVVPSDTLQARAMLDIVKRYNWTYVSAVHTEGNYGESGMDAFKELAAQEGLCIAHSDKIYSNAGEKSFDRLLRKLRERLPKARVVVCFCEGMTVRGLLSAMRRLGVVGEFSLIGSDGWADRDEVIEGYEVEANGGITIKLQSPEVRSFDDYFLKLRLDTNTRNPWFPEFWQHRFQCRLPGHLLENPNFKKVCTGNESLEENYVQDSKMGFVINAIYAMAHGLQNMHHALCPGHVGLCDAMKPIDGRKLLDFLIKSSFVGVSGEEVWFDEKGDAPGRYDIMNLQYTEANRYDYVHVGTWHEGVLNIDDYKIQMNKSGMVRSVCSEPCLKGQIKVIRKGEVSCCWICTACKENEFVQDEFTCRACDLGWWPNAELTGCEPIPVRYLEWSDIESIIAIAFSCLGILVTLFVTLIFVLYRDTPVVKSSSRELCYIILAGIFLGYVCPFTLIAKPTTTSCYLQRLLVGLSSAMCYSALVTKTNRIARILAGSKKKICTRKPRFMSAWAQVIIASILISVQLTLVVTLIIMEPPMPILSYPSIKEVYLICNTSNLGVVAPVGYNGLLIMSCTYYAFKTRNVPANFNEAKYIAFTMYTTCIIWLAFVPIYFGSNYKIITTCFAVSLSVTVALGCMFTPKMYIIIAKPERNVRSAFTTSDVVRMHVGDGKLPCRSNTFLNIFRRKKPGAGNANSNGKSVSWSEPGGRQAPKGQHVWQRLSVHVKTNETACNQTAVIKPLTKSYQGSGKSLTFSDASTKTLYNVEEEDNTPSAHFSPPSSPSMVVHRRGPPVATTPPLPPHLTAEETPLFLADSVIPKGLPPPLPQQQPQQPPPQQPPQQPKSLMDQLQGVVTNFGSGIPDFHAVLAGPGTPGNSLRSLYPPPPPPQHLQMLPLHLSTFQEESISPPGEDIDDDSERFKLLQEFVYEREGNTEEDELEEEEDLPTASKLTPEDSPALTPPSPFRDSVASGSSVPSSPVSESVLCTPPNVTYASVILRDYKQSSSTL
Chain of Glutamate receptor ionotropic, NMDA 2C (Rattus norvegicus) (Q00961 20-1237 limits assumed): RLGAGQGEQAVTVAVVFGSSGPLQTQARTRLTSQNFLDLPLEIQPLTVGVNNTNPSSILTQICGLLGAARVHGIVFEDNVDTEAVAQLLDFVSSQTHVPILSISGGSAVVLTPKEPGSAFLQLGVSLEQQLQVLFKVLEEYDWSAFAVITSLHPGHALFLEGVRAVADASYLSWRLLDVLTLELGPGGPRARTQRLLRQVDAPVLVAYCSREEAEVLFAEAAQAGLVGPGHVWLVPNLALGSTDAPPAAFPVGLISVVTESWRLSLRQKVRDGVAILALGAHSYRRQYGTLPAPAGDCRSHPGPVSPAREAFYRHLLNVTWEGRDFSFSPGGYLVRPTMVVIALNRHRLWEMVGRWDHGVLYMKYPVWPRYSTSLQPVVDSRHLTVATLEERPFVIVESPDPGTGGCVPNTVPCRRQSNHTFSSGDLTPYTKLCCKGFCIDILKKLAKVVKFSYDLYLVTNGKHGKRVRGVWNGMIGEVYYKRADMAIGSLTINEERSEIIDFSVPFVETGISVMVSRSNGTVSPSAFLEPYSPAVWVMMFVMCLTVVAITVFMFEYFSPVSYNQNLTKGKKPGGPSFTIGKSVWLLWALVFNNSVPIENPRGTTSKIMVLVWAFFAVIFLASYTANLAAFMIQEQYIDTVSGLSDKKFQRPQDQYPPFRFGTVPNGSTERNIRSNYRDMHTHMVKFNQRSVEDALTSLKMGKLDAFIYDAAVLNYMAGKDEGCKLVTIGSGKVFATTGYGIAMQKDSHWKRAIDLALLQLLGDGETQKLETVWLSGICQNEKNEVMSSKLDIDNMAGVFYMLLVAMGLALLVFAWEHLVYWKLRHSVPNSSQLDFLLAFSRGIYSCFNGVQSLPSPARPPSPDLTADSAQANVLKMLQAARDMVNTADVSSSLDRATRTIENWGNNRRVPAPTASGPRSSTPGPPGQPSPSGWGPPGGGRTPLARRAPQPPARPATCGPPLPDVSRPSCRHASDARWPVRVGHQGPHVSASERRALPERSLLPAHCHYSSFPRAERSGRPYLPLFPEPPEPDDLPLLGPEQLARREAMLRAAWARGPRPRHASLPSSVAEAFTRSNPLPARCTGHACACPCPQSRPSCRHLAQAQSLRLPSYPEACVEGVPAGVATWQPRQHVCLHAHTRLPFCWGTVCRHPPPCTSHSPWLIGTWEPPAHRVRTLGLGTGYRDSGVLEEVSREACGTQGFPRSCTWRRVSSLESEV

As for `COc1ccc(/C(=C/n2cncn2)OC(C)C)c(OC)c1`, in assay [1], the IC50 was above 100000 nM.

On to `Clc1cccc(Cl)c1/C(=C/n1cncn1)OC1CCCCCC1`, for which the result in assay [2], in [3], in assay [5], in [6], in assay [7] and in [8] was inactive. Besides, the IC50 in assay [4] stood at 500 nM; in assay [9], 110 nM.
